Read-outs that look alike come from different tables or passages of the source.
Assays:
SARS-CoV-2 USA-WA1/2020 [1] = assay: microbe, parasite or virus in culture; type: cell-based; conditions: Severe acute respiratory syndrome coronavirus 2, Vero C1008, 48 h, Vero E6 cells, MOI 0.025, two days; read-out: SARS-CoV-2 EC50
SARS-CoV-2 USA-WA1/2020 [2] = assay: microbe, parasite or virus in culture; type: cell-based; conditions: Severe acute respiratory syndrome coronavirus 2, 48 h; 293T-ACE2 cells, MOI 0.25, two days; read-out: SARS-CoV-2 EC50
SARS-CoV-2 = type: cell-based; conditions: 48 h post-infection
SCoV2 USA-WA1/2020 = type: cell-based; conditions: 293T-ACE2, MOI 2, 8-h single cycle; added at +2 h relative to infection
3_S2m-23fl RNA hairpin = assay: fluorescence intensity binding assay; design: species or system SARS-CoV-2
Procedure: The 3_S2m-23fl RNA oligonucleotide used in fluorescence intensity experiments was purchased HPLC-purified from Integrated DNA Technologies (Coralville, IA, USA). […] The mixture of tRNAs from E. coli MRE 600 (identified as tRNA^mix) used to evaluate specificity was obtained from Roche (Basel, Switzerland).
3_S2m-23fl (at 100 nM concentration) was snap-cooled in a buffer containing sodium phosphate pH 6.6, 0 or 150 mM NaCl, and 0.1 mM EDTA and incubated with increasing amounts of compound. The specificity of the RNA–ligand interactions was evaluated by repeating the assays in the presence of a 100-fold molar excess (10 μM) of tRNA^mix. The equilibrium dissociation constants Kd were obtained by fitting the dose–response curves to a two-state binding model [41] with Prism software (GraphPad Software, San Diego, CA, USA). All fluorescence binding assays were carried out three times for each molecule and condition.

ATTL RNA = assay: ligand-based 1H NMR (1D, CPMG, wLOGSY); type: binding, SARS-CoV-2
PRF RNA = assay: ligand-based 1H NMR (1D, CPMG, wLOGSY); type: binding, SARS-CoV-2
ORF7b RNA = assay: ligand-based 1H NMR (1D, CPMG, wLOGSY); type: binding, SARS-CoV-2
3_SL1+2 RNA = type: binding
3_S2m RNA [3] = assay: ligand-based 1H NMR (1D, CPMG, wLOGSY); type: binding, SARS-CoV-2
3_S2m RNA [4] = assay: RNA-based 1H NMR (TOCSY) titration; type: binding, SARS-CoV-2; conditions: RNA:ligand up to 1:4
Procedure: The RNA samples were previously diafiltrated into an aqueous solution containing 25 mM potassium phosphate (pH 6.2), 50 mM KCl and 0.1 mM EDTA, and the titration experiments were carried out at 27 °C using 50 μM RNA samples in 100% D2O. The 3_S2m titrations were duplicated at 25 °C using 120 μM RNA samples and additionally acquiring NOESY spectra (250 ms mixing time) at 1:0 and 1:4 ratios. For this system, the chemical shift perturbation analyses included 63 H1’, H2’, and aromatic 3_S2m resonances. The isolated 3_S2m hairpin was studied at two different temperatures (25 and 35 °C) using 120 and 500 μM RNA samples and similar TOCSY and NOESY (120 and 250 ms mixing times) experiments. […] The relaxation delay for NOESY and TOCSY acquisition was 2 and 1.5 s, respectively.

in vitro [5] = conditions: African green monkey, uninfected Vero E6 cells
in vitro [6] = conditions: human, uninfected 293T-ACE2 cells
[7] = average of aliphatic protons, RNA:ligand 1:100 (clomiphene) or 1:50 (trim, qz2)
[8] = average of aromatic protons, RNA:ligand 1:100 (clomiphene) or 1:50 (trim, qz2)

## NCCCc1cn(C(c2ccccc2)(c2ccccc2)c2ccccc2)cn1 [trim]
SARS-CoV-2 USA-WA1/2020 [1]
  EC50: 3.5 µM
SARS-CoV-2 USA-WA1/2020 [2]
  EC50: 0.33 µM
SARS-CoV-2
  viral titers in supernatants (TCID50): below the limit of detection
SCoV2 USA-WA1/2020
  nucleocapsid protein expression: strongly inhibited
3_S2m-23fl RNA hairpin; 0 mM NaCl, pH 6.6, 25 °C, read-out: Kd
  Kd: 19.3 µM
3_S2m-23fl RNA hairpin; 150 mM NaCl, 100-fold molar excess of tRNA, read-out: Kd-tRNA
  Kd: 8.97 µM
3_S2m-23fl RNA hairpin; 150 mM NaCl, pH 6.6, 25 °C, no tRNA, read-out: Kd
  Kd: 12.5 µM
ATTL RNA; [7]
  CPMG variation: 11.7%
  LB: 10.0%
  LOGSY factor: 5.15%
ATTL RNA; [8]
  CPMG variation: -12.7%
  LB: 9.31%
  LOGSY factor: 4.35%
ATTL RNA; trim peak A, RNA:ligand 1:50
  CPMG variation: 8.20%
  LB: 12.4%
  LOGSY factor: 7.80%
ATTL RNA; trim peak B, RNA:ligand 1:50
  CPMG variation: 17.6%
  LB: 8.81%
  LOGSY factor: 2.50%
ATTL RNA; trim peak C, RNA:ligand 1:50
  CPMG variation: -36.9%
  LB: 1.54%
  LOGSY factor: 4.56%
ATTL RNA; trim peak D, RNA:ligand 1:50
  CPMG variation: 8.68%
  LB: 7.54%
  LOGSY factor: 4.51%
ATTL RNA; trim peak E, RNA:ligand 1:50
  CPMG variation: -32.0%
  LB: 23.3%
  LOGSY factor: 3.98%
PRF RNA; [7]
  CPMG variation: 14.0%
  LB: 13.9%
  LOGSY factor: 29.0%
PRF RNA; [8]
  CPMG variation: 15.5%
  LB: -22.5%
  LOGSY factor: 50.5%
PRF RNA; trim peak A, RNA:ligand 1:50
  CPMG variation: 13.0%
  LB: 20.1%
  LOGSY factor: 37.0%
PRF RNA; trim peak B, RNA:ligand 1:50
  CPMG variation: 18.9%
  LB: 10.8%
  LOGSY factor: 21.0%
PRF RNA; trim peak C, RNA:ligand 1:50
  CPMG variation: 9.72%
  LB: -39.2%
  LOGSY factor: 16.7%
PRF RNA; trim peak D, RNA:ligand 1:50
  CPMG variation: 19.7%
  LB: 3.93%
  LOGSY factor: 46.0%
PRF RNA; trim peak E, RNA:ligand 1:50
  CPMG variation: 12.5%
  LB: -58.9%
  LOGSY factor: 88.8%
ORF7b RNA; [7]
  CPMG variation: 38.7%
  LB: 13.5%
  LOGSY factor: 103%
ORF7b RNA; [8]
  CPMG variation: 30.2%
  LB: 4.23%
  LOGSY factor: 208%
ORF7b RNA; trim peak A, RNA:ligand 1:50
  CPMG variation: 34.9%
  LB: 15.8%
  LOGSY factor: 75.4%
ORF7b RNA; trim peak B, RNA:ligand 1:50
  CPMG variation: 44.0%
  LB: 12.4%
  LOGSY factor: 132%
ORF7b RNA; trim peak C, RNA:ligand 1:50
  CPMG variation: 18.3%
  LB: -3.43%
  LOGSY factor: 210%
ORF7b RNA; trim peak D, RNA:ligand 1:50
  CPMG variation: 41.8%
  LB: 7.94%
  LOGSY factor: 218%
ORF7b RNA; trim peak E, RNA:ligand 1:50
  CPMG variation: 20.4%
  LB: 4.46%
  LOGSY factor: 196%
3_SL1+2 RNA; [7]
  CPMG variation: 18.3%
  LB: 14.0%
  LOGSY factor: 33.1%
3_SL1+2 RNA; [8]
  CPMG variation: 25.0%
  LB: 10.2%
  LOGSY factor: 87.9%
3_SL1+2 RNA; trim peak A, RNA:ligand 1:50
  CPMG variation: 18.5%
  LB: 11.8%
  LOGSY factor: 32.1%
3_SL1+2 RNA; trim peak B, RNA:ligand 1:50
  CPMG variation: 23.8%
  LB: 15.1%
  LOGSY factor: 34.2%
3_SL1+2 RNA; trim peak C, RNA:ligand 1:50
  CPMG variation: 23.6%
  LB: 7.46%
  LOGSY factor: 80.8%
3_SL1+2 RNA; trim peak D, RNA:ligand 1:50
  CPMG variation: 25.2%
  LB: 9.70%
  LOGSY factor: 92.6%
3_SL1+2 RNA; trim peak E, RNA:ligand 1:50
  CPMG variation: 26.4%
  LB: 14.1%
  LOGSY factor: 90.5%
3_S2m RNA [3]; [7]
  CPMG variation: 15.7%
  LB: 9.33%
  LOGSY factor: 39.4%
3_S2m RNA [3]; [8]
  CPMG variation: 24.0%
  LB: 8.82%
  LOGSY factor: 54.4%
3_S2m RNA [3]; trim peak A, RNA:ligand 1:50
  CPMG variation: 15.8%
  LB: 5.70%
  LOGSY factor: 45.5%
3_S2m RNA [3]; trim peak B, RNA:ligand 1:50
  CPMG variation: 22.1%
  LB: 11.1%
  LOGSY factor: 33.3%
3_S2m RNA [3]; trim peak C, RNA:ligand 1:50
  CPMG variation: 22.2%
  LB: 11.7%
  LOGSY factor: 54.5%
3_S2m RNA [3]; trim peak D, RNA:ligand 1:50
  CPMG variation: 24.2%
  LB: 4.64%
  LOGSY factor: 70.5%
3_S2m RNA [3]; trim peak E, RNA:ligand 1:50
  CPMG variation: 26.4%
  LB: 14.3%
  LOGSY factor: 38.2%
3_S2m RNA [4]
  RNA chemical shift perturbations: strongest RNA chemical shift perturbations
In vitro [5]
  CC50 at 2 days: > 90 µM
In vitro [6]
  CC50 at 2 days: 23.5 µM

— PMC9784969, “SARS-CoV-2 Inhibitors Identified by Phenotypic Analysis of a Collection of Viral RNA-Binding Molecules” (Pharmaceuticals, 2022)
